Each compound was assayed on DU-145 (assay: NCI60 five-dose screen, Prostate Cancer). Conditions: Homo sapiens; DU-145, Prostate Cancer; five-dose screen; read-out: GI50.
Format: cell-based

SMILES	GI50
CC[C@]12C=CCN3CC[C@@]4(c5ccc(OC)cc5N(C)[C@H]4[C@@](O)(C(=O)OC)[C@@H]1OC(=O)CCC(=O)N1CCN(c4ccc(C(F)(F)F)cc4)CC1)[C@@H]32 [Compound 28]	5.25 µM

These compounds were tested on SK-OV-3 (assay: NCI60 five-dose screen, Ovarian Cancer). Conditions: Homo sapiens; SK-OV-3, Ovarian Cancer; five-dose screen; read-out: GI50.
Format: cell-based

SMILES	GI50
CC[C@]12C=CCN3CC[C@@]4(c5ccc(OC)cc5N(C)[C@H]4[C@@](O)(C(=O)OC)[C@@H]1OC(=O)CCC(=O)N1CCN(c4ccc(C(F)(F)F)cc4)CC1)[C@@H]32 [Compound 28]	3.89 µM

These compounds were tested on UACC-62 (assay: NCI60 five-dose screen, Melanoma). Conditions: Homo sapiens; UACC-62, Melanoma; five-dose screen; read-out: GI50.
Format: cell-based

SMILES	GI50
CC[C@]12C=CCN3CC[C@@]4(c5ccc(OC)cc5N(C)[C@H]4[C@@](O)(C(=O)OC)[C@@H]1OC(=O)CCC(=O)N1CCN(c4ccc(C(F)(F)F)cc4)CC1)[C@@H]32 [Compound 28]	2.88 µM

Each compound was assayed on UO-31 (assay: NCI60 five-dose screen, Renal Cancer). Conditions: Homo sapiens; UO-31, Renal Cancer; five-dose screen; read-out: GI50.
Format: cell-based

SMILES	GI50
CC[C@]12C=CCN3CC[C@@]4(c5ccc(OC)cc5N(C)[C@H]4[C@@](O)(C(=O)OC)[C@@H]1OC(=O)CCC(=O)N1CCN(c4ccc(C(F)(F)F)cc4)CC1)[C@@H]32 [Compound 28]	2.29 µM

Each compound was assayed on NCI-H23 (assay: NCI60 five-dose screen, Non-small Cell Lung Cancer). Conditions: Homo sapiens; NCI-H23, Non-small Cell Lung Cancer; five-dose screen; read-out: GI50.
Format: cell-based

SMILES	GI50
CC[C@]12C=CCN3CC[C@@]4(c5ccc(OC)cc5N(C)[C@H]4[C@@](O)(C(=O)OC)[C@@H]1OC(=O)CCC(=O)N1CCN(c4ccc(C(F)(F)F)cc4)CC1)[C@@H]32 [Compound 28]	4.37 µM

These compounds were tested on MALME-3M (assay: NCI60 five-dose screen, Melanoma). Conditions: Homo sapiens; MALME-3M, Melanoma; five-dose screen; read-out: GI50.
Format: cell-based

SMILES	GI50
CC[C@]12C=CCN3CC[C@@]4(c5ccc(OC)cc5N(C)[C@H]4[C@@](O)(C(=O)OC)[C@@H]1OC(=O)CCC(=O)N1CCN(c4ccc(C(F)(F)F)cc4)CC1)[C@@H]32 [Compound 28]	5.37 µM

What follows are compounds tested on SF-295 (assay: NCI60 five-dose screen, CNS Cancer). Conditions: Homo sapiens; SF-295, CNS Cancer; five-dose screen; read-out: GI50.
Format: cell-based

SMILES	GI50
CC[C@]12C=CCN3CC[C@@]4(c5ccc(OC)cc5N(C)[C@H]4[C@@](O)(C(=O)OC)[C@@H]1OC(=O)CCC(=O)N1CCN(c4ccc(C(F)(F)F)cc4)CC1)[C@@H]32 [Compound 28]	3.16 µM

What follows are compounds tested on 60 human tumor cell lines (NCI60) (assay: NCI60 five-dose screen, whole panel and sub-panel means). Conditions: Homo sapiens, 60 cell, mean over all 60 cell lines; read-out: GI50 Mean.
Format: cell-based

SMILES	GI50
CC[C@]12C=CCN3CC[C@@]4(c5ccc(OC)cc5N(C)[C@H]4[C@@](O)(C(=O)OC)[C@@H]1OC(=O)CCC(=O)N1CCN(c4ccc(C(F)(F)F)cc4)CC1)[C@@H]32 [Compound 28]	< 4 µM

Same assay, conditions: Homo sapiens, mean over Breast Cancer panel; read-out: GI50 Mean

SMILES	GI50
CC[C@]12C=CCN3CC[C@@]4(c5ccc(OC)cc5N(C)[C@H]4[C@@](O)(C(=O)OC)[C@@H]1OC(=O)CCC(=O)N1CCN(c4ccc(C(F)(F)F)cc4)CC1)[C@@H]32 [Compound 28]	3.44 µM

Same assay, conditions: Homo sapiens, mean over CNS Cancer panel; read-out: GI50 Mean

SMILES	GI50
CC[C@]12C=CCN3CC[C@@]4(c5ccc(OC)cc5N(C)[C@H]4[C@@](O)(C(=O)OC)[C@@H]1OC(=O)CCC(=O)N1CCN(c4ccc(C(F)(F)F)cc4)CC1)[C@@H]32 [Compound 28]	3.69 µM

Same assay, conditions: Homo sapiens, mean over Colon Cancer panel; read-out: GI50 Mean

SMILES	GI50
CC[C@]12C=CCN3CC[C@@]4(c5ccc(OC)cc5N(C)[C@H]4[C@@](O)(C(=O)OC)[C@@H]1OC(=O)CCC(=O)N1CCN(c4ccc(C(F)(F)F)cc4)CC1)[C@@H]32 [Compound 28]	3.16 µM

Same assay, conditions: Homo sapiens, mean over Leukemia panel; read-out: GI50 Mean

SMILES	GI50
CC[C@]12C=CCN3CC[C@@]4(c5ccc(OC)cc5N(C)[C@H]4[C@@](O)(C(=O)OC)[C@@H]1OC(=O)CCC(=O)N1CCN(c4ccc(C(F)(F)F)cc4)CC1)[C@@H]32 [Compound 28]	1.81 µM

Same assay, conditions: Homo sapiens, mean over Melanoma panel; read-out: GI50 Mean

SMILES	GI50
CC[C@]12C=CCN3CC[C@@]4(c5ccc(OC)cc5N(C)[C@H]4[C@@](O)(C(=O)OC)[C@@H]1OC(=O)CCC(=O)N1CCN(c4ccc(C(F)(F)F)cc4)CC1)[C@@H]32 [Compound 28]	3.63 µM

Same assay, conditions: Homo sapiens, mean over Non-small Cell Lung Cancer panel; read-out: GI50 Mean

SMILES	GI50
CC[C@]12C=CCN3CC[C@@]4(c5ccc(OC)cc5N(C)[C@H]4[C@@](O)(C(=O)OC)[C@@H]1OC(=O)CCC(=O)N1CCN(c4ccc(C(F)(F)F)cc4)CC1)[C@@H]32 [Compound 28]	4.23 µM

Same assay, conditions: Homo sapiens, mean over Ovarian Cancer panel; read-out: GI50 Mean

SMILES	GI50
CC[C@]12C=CCN3CC[C@@]4(c5ccc(OC)cc5N(C)[C@H]4[C@@](O)(C(=O)OC)[C@@H]1OC(=O)CCC(=O)N1CCN(c4ccc(C(F)(F)F)cc4)CC1)[C@@H]32 [Compound 28]	3.92 µM

Same assay, conditions: Homo sapiens, mean over Prostate Cancer panel; read-out: GI50 Mean

SMILES	GI50
CC[C@]12C=CCN3CC[C@@]4(c5ccc(OC)cc5N(C)[C@H]4[C@@](O)(C(=O)OC)[C@@H]1OC(=O)CCC(=O)N1CCN(c4ccc(C(F)(F)F)cc4)CC1)[C@@H]32 [Compound 28]	3.85 µM

Same assay, conditions: Homo sapiens, mean over Renal Cancer panel; read-out: GI50 Mean

SMILES	GI50
CC[C@]12C=CCN3CC[C@@]4(c5ccc(OC)cc5N(C)[C@H]4[C@@](O)(C(=O)OC)[C@@H]1OC(=O)CCC(=O)N1CCN(c4ccc(C(F)(F)F)cc4)CC1)[C@@H]32 [Compound 28]	3.67 µM

Same assay, conditions: mean over all 60 cell lines; read-out: GI50 Mean

SMILES	GI50
CC[C@]12C=CCN3CC[C@@]4(c5ccc(OC)cc5N(C)[C@H]4[C@@](O)(C(=O)OC)[C@@H]1OC(=O)CCC(=O)N1CCN(c4ccc(C(F)(F)F)cc4)CC1)[C@@H]32 [Compound 28]	3.55 µM

These compounds were tested on HCT-116 (assay: NCI60 five-dose screen, Colon Cancer). Conditions: Homo sapiens; HCT-116, Colon Cancer; five-dose screen; read-out: GI50.
Format: cell-based

SMILES	GI50
CC[C@]12C=CCN3CC[C@@]4(c5ccc(OC)cc5N(C)[C@H]4[C@@](O)(C(=O)OC)[C@@H]1OC(=O)CCC(=O)N1CCN(c4ccc(C(F)(F)F)cc4)CC1)[C@@H]32 [Compound 28]	3.31 µM

What follows are compounds tested on 786–0 (assay: NCI60 five-dose screen, Renal Cancer). Conditions: Homo sapiens; 786–0, Renal Cancer; five-dose screen; read-out: GI50.
Format: cell-based

SMILES	GI50
CC[C@]12C=CCN3CC[C@@]4(c5ccc(OC)cc5N(C)[C@H]4[C@@](O)(C(=O)OC)[C@@H]1OC(=O)CCC(=O)N1CCN(c4ccc(C(F)(F)F)cc4)CC1)[C@@H]32 [Compound 28]	5.01 µM

The compounds below were run on A498 (assay: NCI60 five-dose screen, Renal Cancer). Conditions: Homo sapiens; A498, Renal Cancer; five-dose screen; read-out: GI50.
Format: cell-based

SMILES	GI50
CC[C@]12C=CCN3CC[C@@]4(c5ccc(OC)cc5N(C)[C@H]4[C@@](O)(C(=O)OC)[C@@H]1OC(=O)CCC(=O)N1CCN(c4ccc(C(F)(F)F)cc4)CC1)[C@@H]32 [Compound 28]	5.75 µM

The compounds below were run on COLO 205 (assay: NCI60 five-dose screen, Colon Cancer). Conditions: Homo sapiens; COLO 205, Colon Cancer; five-dose screen; read-out: GI50.
Format: cell-based

SMILES	GI50
CC[C@]12C=CCN3CC[C@@]4(c5ccc(OC)cc5N(C)[C@H]4[C@@](O)(C(=O)OC)[C@@H]1OC(=O)CCC(=O)N1CCN(c4ccc(C(F)(F)F)cc4)CC1)[C@@H]32 [Compound 28]	1.91 µM

Source: PMC11277489, “Novel Piperazine Derivatives of Vindoline as Anticancer Agents” (International Journal of Molecular Sciences, 2024)
